The values that follow are results of earlier work, collected in patent US20150272935A1, “Use of a Factor Xa Inhibitor for Treating and Preventing Bleeding Events And Related Disorders in Patients Having Sensitivity to Vitamin K Antagonists Used As Anticoagulants” (priority 2014, published 2015).

Where two headings read alike, the source gives them in different places.

The conditions of data set [1]: rats.
The conditions of data set [2]: monkeys.
The target in another data set is CYP2C9*3 (Homo sapiens, UniProt P11712, I359L). The note with it: CYP2C9*3 versus CYP2C9*1.
Another data set deals with CYP2C9*2 (Homo sapiens, UniProt P11712, R144C). The note with it: CYP2C9*2 versus CYP2C9*1.

In the case of `CN1CCc2nc(C(=O)N[C@@H]3C[C@@H](C(=O)N(C)C)CC[C@@H]3NC(=O)C(=O)Nc3ccc(Cl)cn3)sc2C1.Cc1ccc(S(=O)(=O)O)cc1` [Edoxaban], the safety and tolerability result (doses of up to 90 mg per day) was “generally safe and well tolerated”. The oral bioavailability entry (human subjects) is “orally bioavailable”, the oral bioavailability entry in data set [1] is recorded as “orally bioavailable” and the oral bioavailability result in data set [2] is on record as “orally bioavailable”.
In the case of `CC(=O)CC(c1ccccc1)c1c(O)c2ccccc2oc1=O` (stereo not drawn) [Warfarin], the figures for the “reduction of warfarin metabolism” value on CYP2C9*3 and on CYP2C9*2 were “about 90%” and “about 30%”, respectively.
